Test results as given in publication PMC10469688, “Comparative pharmacokinetics and safety evaluation of high dosage regimens of Andrographis paniculata aqueous extract after single and multiple oral administration in healthy participants” (Frontiers in Pharmacology, 2023).
Read-outs that look alike come from different tables or passages of the source. Values belong to the compound of their own block, whether it stands above or below them.

Tests used:
[1] = Plasma pharmacokinetics after single and multiple oral administration of A. paniculata aqueous extract capsules in healthy participants (HPLC-MS/MS, non-compartmental analysis); assay type: in vivo, human; set-up: MRT: unit: h; Cmax: unit: ng/mL
Experimental: (§1) An opened-label, two-dosage, single- and multiple-oral dosing, single center, phase I safety and pharmacokinetic study was conducted in healthy participants while they were under a fasting condition. […] Two weeks prior to the beginning of the clinical study, the volunteers were advised to abstain from other dietary supplements, herbal products, or any concomitant medicines. During the period of the study, no other medications were allowed. All participants fasted overnight for at least 8 h before drug administration. The study conducted a single-dose investigation on day 1 by oral administering A. paniculata extract capsules once in both groups. Twelve participants in group 1 received 3 capsules orally (equivalent to 60 mg of andrographolide) with 240 mL of water, while another twelve participants in group 2 received 6 capsules (equivalent to 120 mg of andrographolide). This was followed by serial blood sampling for up to 24 h after dosing. For blood collection, 6 mL of venous blood in EDTA tube was collected via a forearm vein catheter at each time point including pre-dose (0 h), and post-dose after oral administration (T 0.167, 0.333, 0.5, 0.75, 1, 1.5, 2, 4, 6, 8, 10, 12 and 24 h). Subsequently, observation of elimination continued until 48 h post-dose to ensure complete excretion of the major active diterpenoids through urine. Urine samples were collected at day 0 (the day prior to dosing) and day 1–2 (T 0–4, 4–8, 8–12,12–24, 24–32, 32–40, and 40–48 h after dosing). The study then proceeded to investigate multiple doses in both groups by administering continuous oral doses from day 3 until the morning of day 5. (dosing at T48, 56, 64, 72, 80, 88, and 96 h). In group 1, three capsules were administered orally before meals, three times a day (3 × 3 capsules at 8-h intervals, calculated as 180 mg/day of andrographolide); whereas in group 2, six capsules were administered daily, three times a day (6 × 3 capsules at 8-h intervals, calculated as 360 mg/day of andrographolide). For serial blood sampling of multiple doses, 6 mL of blood samples were collected starting in the morning of day 5 (sampling timepoints T 96, 96.167, 96.333, 96.5, 96.75, 97, 97.5, 98, 100, 102, and 104 h post dose).
(§2) All collected blood samples were centrifuged at 4,000 rpm, 4^οC, for 5 min. Plasma was collected and stored in cryotubes at −70^οC until analysis. Urine was kept as 10 mL aliquot samples at each time point and stored at −70^οC until analysis. Extraction was performed by protein precipitation method as previously reported ([Songvut et al., 2023]). Briefly, 50 µL of either a plasma or urine sample was mixed with 200 µL of methanol containing an internal standard (IS) of digoxin (50 ng/mL). Pretreated samples were vortexed for 10 min and were then centrifuged at 12,000 rpm, 4°C, for 10 min. The supernatants were filtered through a 0.2 µm PVDF membrane and were subsequently transferred to vials for HPLC-MS/MS analysis.
(§3) Hydrolysis of the glucuronidated and sulfated conjugates was conducted by enzymatic incubation as our previous published method ([Songvut et al., 2023]). To analyze the metabolic conjugations, 50 μL of either a plasma or urine sample was pre-incubated at 37^οC with 50 µL of either of β-glucuronidase in sodium phosphate buffer (pH 6.8) for 30 min, or sulfatase in sodium acetate buffer (pH 5) for 2 h. IS (50 ng/mL) was then added along with 150 μL of methanol to precipitate protein. The extracted samples were then vortexed and centrifuged at 12,000 rpm, 4^οC, for 10 min. The supernatants were collected by filtering through a 0.2-µm PVDF membrane before HPLC-MS/MS injection.
(§4) Analysis for the concentrations of targeted compounds in plasma and urine samples were carried out using HPLC-MS/MS at the Laboratory of Pharmacology, Chulabhorn Research Institute, Bangkok, Thailand. The quantitative determination was performed according to a previously validated method ([Songvut et al., 2023]). […]

[2] = Cumulative urinary excretion after single oral administration of A. paniculata aqueous extract capsules in healthy participants; assay type: in vivo, human; conditions: urine T 0–48 h
Experimental: as §1, §2, §3, §4

[3] = multiple oral doses 60 mg × 3 times/day of andrographolide, n = 12, mean ± SD
[4] = multiple oral doses 60 mg × 3 times/day of andrographolide, n = 12, median [IQR]
[5] = multiple oral doses 120 mg × 3 times/day of andrographolide, n = 11, mean ± SD
[6] = multiple oral doses 120 mg × 3 times/day of andrographolide, n = 11, median [IQR]
[7] = single oral dose equivalent to 60 mg andrographolide, n = 12, mean ± SD
[8] = single oral dose equivalent to 60 mg andrographolide, n = 12, median [IQR]
[9] = single oral dose equivalent to 120 mg andrographolide, n = 11, mean ± SD
[10] = single oral dose equivalent to 120 mg andrographolide, n = 11, median [IQR]

AUC(0–8h) [1, 3]: 329 ± 55.5 ng·h/mL
Cl/F [1, 3]: 16.3 ± 3.83 mL/min/kg
MRT [1, 3]: 3.0 ± 0.61 h
Vd/F [1, 3]: 2.6 ± 1.8 L/kg
Half life [1, 4]: 1.6[0.80] h
Tmax [1, 4]: 1.0[0.20] h
Cmax ([1]; multiple oral doses 60 mg × 3 times/day of andrographolide, plasma T 0–8 h, n = 12, mean ± SD): 137 ± 29.3 ng/mL
AUC(0–8h) [1, 5]: 693 ± 165 ng·h/mL
Cl/F [1, 5]: 14.2 ± 2.33 mL/min/kg
MRT [1, 5]: 4.5 ± 1.2 h
Vd/F [1, 5]: 4.4 ± 2.0 L/kg
Half life [1, 6]: 3.0[1.5] h
Tmax [1, 6]: 1.0[0.33] h
Cmax ([1]; multiple oral doses 120 mg × 3 times/day of andrographolide, plasma T 0–8 h, n = 11, mean ± SD): 237 ± 41.4 ng/mL
AUC(0-inf) [1, 7]: 328 ± 102 ng·h/mL
AUC(0–24h) [1, 7]: 328 ± 102 ng·h/mL
Cl/F [1, 7]: 18.3 ± 4.5 mL/min/kg
MRT [1, 7]: 4.3 ± 0.44 h
Vd/F [1, 7]: 2.1 ± 0.60 L/kg
Half life [1, 8]: 1.4[0.07] h
Tmax [1, 8]: 1.0[0.33] h
Cmax ([1]; single oral dose equivalent to 60 mg andrographolide, plasma T 0–24 h, n = 12, mean ± SD): 98.6 ± 40.3 ng/mL
AUC(0-inf) [1, 9]: 674 ± 274 ng·h/mL
AUC(0–24h) [1, 9]: 674 ± 274 ng·h/mL
Cl/F [1, 9]: 18.3 ± 6 mL/min/kg
MRT [1, 9]: 4.1 ± 0.65 h
Vd/F [1, 9]: 2.0 ± 0.69 L/kg
Half life [1, 10]: 1.2[0.06] h
Tmax [1, 10]: 1.5[0.25] h
Cmax ([1]; single oral dose equivalent to 120 mg andrographolide, plasma T 0–24 h, n = 11, mean ± SD): 211 ± 138 ng/mL
Cumulative urine [2, 7]: 70.6 ± 27.6 µg
Cumulative urine [2, 9]: 159 ± 56.8 µg
Compound: C=C1CCC2C(C)(CO)C(O)CCC2(C)C1C=CC1=CCOC1=O (stereo not shown) [14-Deoxy-11,12-didehydroandrographolide, 14-deoxy-11, 12-didehydroandrographolide]

CL/F ([1]; human, plasma, multiple oral doses 60 mg × 3 times/day of andrographolide, n = 12, mean ± SD): 255 mL/min/kg
AUC(0-t) ([1]; human, plasma, multiple oral doses 60 mg × 3 times/day of andrographolide, n = 12, mean ± SD, read-out: AUC(0–8h)): 11.3 ± 3.3 ng·h/mL
MRT ([1]; human, plasma, multiple oral doses 60 mg × 3 times/day of andrographolide, n = 12, mean ± SD, read-out: MRT): 1.5 ± 0.11 h
Vd/F ([1]; human, plasma, multiple oral doses 60 mg × 3 times/day of andrographolide, n = 12, mean ± SD, read-out: Vd/F): 5.4 ± 3.1 L/kg
half-life ([1]; human, plasma, multiple oral doses 60 mg × 3 times/day of andrographolide, n = 12, median [IQR]): 0.23 h
Tmax ([1]; human, plasma, multiple oral doses 60 mg × 3 times/day of andrographolide, n = 12, median [IQR], read-out: Tmax): 1 h
CL/F ([1]; human, plasma, multiple oral doses 120 mg × 3 times/day of andrographolide, n = 11, mean ± SD): 302 mL/min/kg
AUC(0-t) ([1]; human, plasma, multiple oral doses 120 mg × 3 times/day of andrographolide, n = 11, mean ± SD, read-out: AUC(0–8h)): 20 ± 9.1 ng·h/mL
MRT ([1]; human, plasma, multiple oral doses 120 mg × 3 times/day of andrographolide, n = 11, mean ± SD, read-out: MRT): 1.6 ± 0.07 h
Vd/F ([1]; human, plasma, multiple oral doses 120 mg × 3 times/day of andrographolide, n = 11, mean ± SD, read-out: Vd/F): 5.7 ± 2.8 L/kg
half-life ([1]; human, plasma, multiple oral doses 120 mg × 3 times/day of andrographolide, n = 11, median [IQR]): 0.21 h
Tmax ([1]; human, plasma, multiple oral doses 120 mg × 3 times/day of andrographolide, n = 11, median [IQR], read-out: Tmax): 1 h
Tmax ([1]; human, plasma, single oral dose equivalent to 60 mg andrographolide, n = 12, median [IQR], read-out: Tmax): 1 h
CL/F ([1]; human, plasma, single oral dose equivalent to 120 mg andrographolide, n = 11, mean ± SD): 293 mL/min/kg
AUC(0-inf) ([1]; human, plasma, single oral dose equivalent to 120 mg andrographolide, n = 11, mean ± SD, read-out: AUC(0-inf)): 20.5 ± 8.8 ng·h/mL
AUC(0-t) ([1]; human, plasma, single oral dose equivalent to 120 mg andrographolide, n = 11, mean ± SD, read-out: AUC(0–24h)): 20.5 ± 8.8 ng·h/mL
MRT ([1]; human, plasma, single oral dose equivalent to 120 mg andrographolide, n = 11, mean ± SD, read-out: MRT): 1.5 ± 0.08 h
Vd/F ([1]; human, plasma, single oral dose equivalent to 120 mg andrographolide, n = 11, mean ± SD, read-out: Vd/F): 5.5 ± 2.9 L/kg
half-life ([1]; human, plasma, single oral dose equivalent to 120 mg andrographolide, n = 11, median [IQR]): 0.21 h
Tmax ([1]; human, plasma, single oral dose equivalent to 120 mg andrographolide, n = 11, median [IQR], read-out: Tmax): 1 h
Cmax ([1]; human, multiple oral doses 60 mg × 3 times/day of andrographolide, plasma T 0–8 h, n = 12, mean ± SD, read-out: Cmax): 6.6 ± 1.9 ng/mL
Cmax ([1]; human, multiple oral doses 120 mg × 3 times/day of andrographolide, plasma T 0–8 h, n = 11, mean ± SD, read-out: Cmax): 11.3 ± 5.5 ng/mL
Cmax ([1]; human, single oral dose equivalent to 60 mg andrographolide, plasma T 0–24 h, n = 12, mean ± SD, read-out: Cmax): 4.2 ± 3.4 ng/mL
Cmax ([1]; human, single oral dose equivalent to 120 mg andrographolide, plasma T 0–24 h, n = 11, mean ± SD, read-out: Cmax): 11.6 ± 5.4 ng/mL
Cumulative urine [2, 7]: 108 ± 36.5 µg
Cumulative urine [2, 9]: 199 ± 77.3 µg
Compound: C=C1CC[C@@H]2[C@](C)(CO)[C@H](O)CC[C@@]2(C)[C@@H]1CCC1=CCOC1=O [14-Deoxyandrographolide, 14-deoxyandrographolide]
